Some results are limits rather than exact numbers.

The record followed here is patent publication US10894793B2, “Bicyclic pyridine, pyrazine, and pyrimidine derivatives as PI3K beta inhibitors” (Janssen Pharmaceutica NV, priority 2016, dated 2021).

Data set [1] concerns Akt phosphorylated at Ser473 in PC-3 cells. Kind of data set: Cellular assay: phosphorylation of Akt (Ser473) in PC-3 cells, MSD ELISA. The conditions noted are these: Homo sapiens, PC-3, 1 h, 60 min compound incubation, read-out: IC50 pAkt_S473. The data set is classed as cell-based. As to the method: (§1) Cellular activity of PI3Kβ inhibitors was determined by quantifying the phosphorylation of Akt in PC-3 cells. Akt phosphorylated at Ser473 and Thr308 were measured using an enzyme-linked immunosorbent assay (ELISA; Meso Scale Discovery (MSD), Gaithersburg, Md.) and specific primary antibodies from MSD.
(§2) On day 1, PC3 cells (ATCC #[…]) were seeded into PerkinElmer MW96 plates at 25.000 cells per well, in 75 μl complete culture medium (DMEM high glucose, AQmedia™, D0819, Sigma-Aldrich) containing 10% heat inactivated FCS and incubated at 37° C., […] during 24 hours. On day 2, compound or DMSO (0.3%) was added and cells were further incubated for 60 min at 37° C., 5% CO2 in a total volume of 100 μl of medium.
(§3) The phosphoprotein assay was executed according to vendor instructions in the Phospho-Akt (Ser473) Assay Whole Cell Lysate Kit (MSD #K15100D-3) and the Phospho-Akt (Thr308) Assay Whole Cell Lysate Kit (MSD #K151DYD-3) using the lysis, blocking and wash buffer provided.
(§4) Briefly, at the end of the cell treatment period, media were removed by aspiration and adherent cells were lysed in 50 μl ice-cold lysis buffer. MSD plates are supplied pre-coated with capture antibodies for Phospho-Akt (Ser473 and Thr308). After blocking, lysates from tissue culture plates were added and plates were washed. Then, a solution containing the detection antibody (anti-total Akt conjugated with an electrochemiluminescent compound-MSD Sulfo-tag label) was added. The signals were detected using an MSD SECTOR Imager 6000 and are proportional to the phospho-Akt titres.
(§5) Data were processed. The percentage of inhibition was plotted against the log concentration of test compounds, and the sigmoidal log concentration-effect curve of best fit was calculated by nonlinear regression analysis. From these concentration-response curves, the IC50 values were calculated. Five concentrations were used for curve fitting.
A general note: ELISA stands for enzyme-linked immunosorbent assay.

Data set [2] deals with Akt phosphorylated at Thr308 in PC-3 cells. Kind of data set: Cellular assay: phosphorylation of Akt (Thr308) in PC-3 cells, MSD ELISA. Conditions: Homo sapiens, PC-3, 1 h, 60 min compound incubation, read-out: IC50 pAkt_Thr308. It counts as cell-based. As for the experimental part: as §1, §2, §3, §4, §5
Data set [3] addresses T1, PIK3Cα_h (Homo sapiens, UniProt P42336).
T1 construct: purchased DiscoveRx Corporation
As to the kind of experiment: Enzyme binding assay (KINOMEscan). The conditions noted are these: DiscoveRx. As to the method: (§6) Enzyme Binding Assays (KINOMEscan®)
(§7) Kinase enzyme binding affinities of compounds disclosed herein were determined using the KINOMEscan technology performed by DiscoveRx Corporation, San Diego, Calif., USA (www.kinomescan.com). Table A reports the obtained Kd values (nM), with the Kd being the inhibitor binding constant: […]

In data set [4] the target is T2, PIK3Cβ_h (Homo sapiens, UniProt P42338).
T2 construct: purchased DiscoveRx Corporation
Kind of data set: Enzyme binding assay (KINOMEscan). Conditions: DiscoveRx. As for the experimental part:
as §6, §7

In data set [5] the target is T3, PIK3Cγ_h (Homo sapiens, UniProt P48736).
T3 construct: purchased DiscoveRx Corporation
Kind of data set: Enzyme binding assay (KINOMEscan). Conditions: DiscoveRx. As to the method: as §6, §7

The target in data set [6] is T4, PIK3Cδ_h (Homo sapiens, UniProt O00329).
T4 construct: purchased DiscoveRx Corporation
T4 sequence (O00329 1-1044): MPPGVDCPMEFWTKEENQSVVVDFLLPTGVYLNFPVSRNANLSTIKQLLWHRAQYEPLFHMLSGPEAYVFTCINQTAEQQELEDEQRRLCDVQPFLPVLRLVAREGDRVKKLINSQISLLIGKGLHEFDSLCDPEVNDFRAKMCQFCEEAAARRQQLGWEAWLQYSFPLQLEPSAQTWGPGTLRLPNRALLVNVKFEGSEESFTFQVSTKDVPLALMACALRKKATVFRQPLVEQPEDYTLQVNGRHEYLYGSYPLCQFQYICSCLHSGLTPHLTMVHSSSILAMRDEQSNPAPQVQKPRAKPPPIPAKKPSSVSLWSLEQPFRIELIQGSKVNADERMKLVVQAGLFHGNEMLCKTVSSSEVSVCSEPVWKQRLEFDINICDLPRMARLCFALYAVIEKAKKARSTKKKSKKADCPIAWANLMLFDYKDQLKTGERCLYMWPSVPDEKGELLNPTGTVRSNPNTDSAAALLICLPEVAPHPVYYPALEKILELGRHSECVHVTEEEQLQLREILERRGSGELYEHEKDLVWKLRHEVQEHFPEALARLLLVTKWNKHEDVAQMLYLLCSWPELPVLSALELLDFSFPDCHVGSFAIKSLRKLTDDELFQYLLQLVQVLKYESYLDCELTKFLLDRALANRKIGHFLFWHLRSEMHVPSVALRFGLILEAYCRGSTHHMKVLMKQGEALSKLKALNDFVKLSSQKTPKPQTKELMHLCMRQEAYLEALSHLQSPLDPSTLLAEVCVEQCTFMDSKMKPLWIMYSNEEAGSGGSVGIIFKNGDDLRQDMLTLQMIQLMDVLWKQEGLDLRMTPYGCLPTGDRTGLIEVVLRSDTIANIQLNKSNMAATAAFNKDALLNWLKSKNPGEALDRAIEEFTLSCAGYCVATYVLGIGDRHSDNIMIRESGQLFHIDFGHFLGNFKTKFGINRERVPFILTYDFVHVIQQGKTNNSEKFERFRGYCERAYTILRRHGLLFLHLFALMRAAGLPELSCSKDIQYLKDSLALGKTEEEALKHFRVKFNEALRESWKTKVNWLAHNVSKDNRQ
As to the kind of experiment: Enzyme binding assay (KINOMEscan). The conditions noted are these: DiscoveRx. As for the experimental part:
as §6, §7

In data set [7] the target is T5, MTOR_h (Homo sapiens, UniProt P42345).
T5 construct: purchased DiscoveRx Corporation
As to the kind of experiment: Enzyme binding assay (KINOMEscan). The conditions noted are these: DiscoveRx. As to the method:
as §6, §7

T1 sequence (P42336 whole entry): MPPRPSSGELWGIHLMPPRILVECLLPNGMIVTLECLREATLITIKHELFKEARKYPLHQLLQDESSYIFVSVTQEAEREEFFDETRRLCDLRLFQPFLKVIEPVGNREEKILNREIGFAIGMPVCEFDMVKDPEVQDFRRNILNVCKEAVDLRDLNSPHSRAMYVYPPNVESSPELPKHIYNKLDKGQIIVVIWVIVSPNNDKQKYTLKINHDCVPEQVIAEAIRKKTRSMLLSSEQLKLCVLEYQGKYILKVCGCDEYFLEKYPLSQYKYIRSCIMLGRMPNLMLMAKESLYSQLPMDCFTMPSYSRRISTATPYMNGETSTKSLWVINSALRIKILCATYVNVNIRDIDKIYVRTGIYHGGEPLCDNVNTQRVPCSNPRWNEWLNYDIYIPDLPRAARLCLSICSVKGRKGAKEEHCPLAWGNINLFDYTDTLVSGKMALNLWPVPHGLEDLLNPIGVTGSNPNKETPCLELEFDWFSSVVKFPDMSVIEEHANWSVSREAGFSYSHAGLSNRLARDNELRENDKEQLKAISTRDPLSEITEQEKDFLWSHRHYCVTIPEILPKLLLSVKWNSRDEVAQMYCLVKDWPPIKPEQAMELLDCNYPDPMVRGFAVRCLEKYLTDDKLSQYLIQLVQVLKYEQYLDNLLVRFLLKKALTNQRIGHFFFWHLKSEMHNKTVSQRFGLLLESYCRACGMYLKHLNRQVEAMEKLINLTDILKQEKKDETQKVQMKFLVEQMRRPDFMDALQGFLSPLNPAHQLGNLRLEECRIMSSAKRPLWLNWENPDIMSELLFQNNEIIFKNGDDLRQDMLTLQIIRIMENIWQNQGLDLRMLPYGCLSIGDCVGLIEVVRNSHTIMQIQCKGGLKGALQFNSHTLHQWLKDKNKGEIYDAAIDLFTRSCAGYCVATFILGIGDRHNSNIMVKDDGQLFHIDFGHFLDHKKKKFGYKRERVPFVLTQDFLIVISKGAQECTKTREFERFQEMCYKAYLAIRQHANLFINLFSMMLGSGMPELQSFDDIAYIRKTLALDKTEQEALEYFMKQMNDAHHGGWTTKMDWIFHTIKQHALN
T3 sequence (P48736 whole entry): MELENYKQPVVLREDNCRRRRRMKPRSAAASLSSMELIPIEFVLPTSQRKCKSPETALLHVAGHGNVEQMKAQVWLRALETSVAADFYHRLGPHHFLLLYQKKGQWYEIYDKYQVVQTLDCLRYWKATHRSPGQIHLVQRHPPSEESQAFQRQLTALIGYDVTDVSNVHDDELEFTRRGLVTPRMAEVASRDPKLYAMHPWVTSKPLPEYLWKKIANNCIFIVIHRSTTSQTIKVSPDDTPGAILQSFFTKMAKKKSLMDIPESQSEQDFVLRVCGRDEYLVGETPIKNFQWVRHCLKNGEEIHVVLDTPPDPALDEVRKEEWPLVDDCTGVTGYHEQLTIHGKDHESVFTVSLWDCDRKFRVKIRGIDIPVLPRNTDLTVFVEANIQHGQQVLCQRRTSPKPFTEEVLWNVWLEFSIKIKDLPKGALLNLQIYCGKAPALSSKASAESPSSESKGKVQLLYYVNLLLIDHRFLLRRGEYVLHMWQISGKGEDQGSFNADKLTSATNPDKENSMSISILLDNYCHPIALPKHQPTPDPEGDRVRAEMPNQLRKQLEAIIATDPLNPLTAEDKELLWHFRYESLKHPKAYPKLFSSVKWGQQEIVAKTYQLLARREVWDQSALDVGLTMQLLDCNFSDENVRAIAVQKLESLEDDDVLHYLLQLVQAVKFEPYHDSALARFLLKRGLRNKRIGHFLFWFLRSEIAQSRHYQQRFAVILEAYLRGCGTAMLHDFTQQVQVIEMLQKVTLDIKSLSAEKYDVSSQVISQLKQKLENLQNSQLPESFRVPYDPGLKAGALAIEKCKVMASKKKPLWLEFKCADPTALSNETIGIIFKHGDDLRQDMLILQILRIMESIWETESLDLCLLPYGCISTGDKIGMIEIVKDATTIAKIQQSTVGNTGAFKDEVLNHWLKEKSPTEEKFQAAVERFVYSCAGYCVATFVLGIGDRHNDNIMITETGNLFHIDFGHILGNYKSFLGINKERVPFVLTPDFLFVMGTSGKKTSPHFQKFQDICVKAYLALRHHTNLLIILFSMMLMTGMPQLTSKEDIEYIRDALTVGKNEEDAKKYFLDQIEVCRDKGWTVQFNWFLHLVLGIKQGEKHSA
T2 sequence (P42338 whole entry): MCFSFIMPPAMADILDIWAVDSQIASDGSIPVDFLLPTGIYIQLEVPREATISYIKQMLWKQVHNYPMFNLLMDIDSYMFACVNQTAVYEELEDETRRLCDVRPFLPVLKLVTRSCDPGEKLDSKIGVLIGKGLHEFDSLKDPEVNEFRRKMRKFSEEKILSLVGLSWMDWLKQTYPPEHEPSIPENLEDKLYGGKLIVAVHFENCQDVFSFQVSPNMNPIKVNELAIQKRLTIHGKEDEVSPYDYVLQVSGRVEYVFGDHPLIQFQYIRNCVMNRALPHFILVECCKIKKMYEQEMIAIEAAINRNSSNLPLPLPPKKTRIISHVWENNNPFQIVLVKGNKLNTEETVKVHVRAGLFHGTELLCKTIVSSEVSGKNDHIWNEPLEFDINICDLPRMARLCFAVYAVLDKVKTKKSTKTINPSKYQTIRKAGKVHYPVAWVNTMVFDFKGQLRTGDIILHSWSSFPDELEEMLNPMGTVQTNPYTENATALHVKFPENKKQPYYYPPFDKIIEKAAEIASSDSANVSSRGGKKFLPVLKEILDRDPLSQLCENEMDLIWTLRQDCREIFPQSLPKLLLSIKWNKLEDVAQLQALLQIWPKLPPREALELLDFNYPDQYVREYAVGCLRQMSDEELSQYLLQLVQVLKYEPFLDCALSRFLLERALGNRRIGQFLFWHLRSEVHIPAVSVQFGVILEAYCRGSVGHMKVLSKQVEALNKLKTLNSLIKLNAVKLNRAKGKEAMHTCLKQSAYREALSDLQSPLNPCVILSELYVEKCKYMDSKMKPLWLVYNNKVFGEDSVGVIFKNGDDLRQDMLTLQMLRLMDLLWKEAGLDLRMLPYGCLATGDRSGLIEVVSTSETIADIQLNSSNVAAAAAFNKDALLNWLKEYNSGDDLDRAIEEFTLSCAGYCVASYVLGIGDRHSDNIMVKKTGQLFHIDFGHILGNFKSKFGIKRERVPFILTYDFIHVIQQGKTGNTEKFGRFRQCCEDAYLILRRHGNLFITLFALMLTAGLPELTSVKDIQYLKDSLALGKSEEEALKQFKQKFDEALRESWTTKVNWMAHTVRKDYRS

As for `OCc1nc2ncc(N3CCOCC3)cn2c1Cc1cccc(F)c1C1CCNCC1` [Compound 49], the melting point (commonly the temperature, or range, at which the solid turns liquid) was found to be 224 °C. The IC50 (commonly the concentration that gives 50% inhibition) in data set [1] was over 513 nM. Further, the IC50 in data set [2] was over 513 nM. Further, in data set [3], the Kd (as a rule, the free concentration of one partner at which half of the binding sites on the other are occupied at equilibrium, for simple one-to-one binding) came to 2570 nM. Besides, in data set [4], binding was characterised by a dissociation constant (Kd) of 15 nM. In data set [5], this compound had a Kd of 15800 nM. Moreover, in data set [6], the affinity, expressed as Kd, was 2240 nM. For the same compound, in data set [7], the Kd was over 30200 nM.
In turn, `Cc1nc2c(C(N)=O)nc(C3=CCOCC3)cn2c1Cc1cccc(C(F)(F)F)c1C` [Compound 5] registered a melting point of 257 °C. Besides, the IC50 in data set [1] is about 87 nM. Also, in data set [2], the IC50 was about 65 nM. Binding in data set [3] was characterised by a dissociation constant (Kd) of 1820 nM. This compound had a Kd in data set [4] of 4.7 nM. The compound also came in with a Kd in data set [5] of 6310 nM. In data set [6], this compound came in with a Kd of 891 nM. Further, in data set [7], binding was put at a Kd of 12300 nM.
Turning to `Cc1c(Cc2c(CN3CC4(C3)CS(=O)(=O)C4)nc3ncc(N4CCOCC4)cn23)cccc1C(F)(F)F` [Compound 21], the melting point was determined as 228 °C. For the same compound, the IC50 in data set [1] amounted to 15 nM. Also, the IC50 in data set [2] turned out to be 17 nM. Besides, the affinity in data set [3], expressed as Kd, was 1480 nM. For the same compound, the dissociation constant (Kd) in data set [4] stood at 0.4 nM. Besides, the Kd in data set [5] was over 30200 nM. In addition, the Kd in data set [6] was found to be 123 nM. In addition, the Kd in data set [7] is over 30200 nM.
Turning to `Cc1c(Cc2c(CO)nc3c(N)cc(C4=CCOCC4)cn23)cccc1C(F)(F)F` [Compound 46], the melting point was determined as 223 °C. For the same compound, the half-maximal inhibitory concentration (IC50) in data set [1] worked out at 32 nM. Also, the IC50 in data set [2] turned out to be 18 nM. Binding in data set [3] was put at a Kd of 8430 nM. For the same compound, the Kd in data set [4] is 16 nM. In data set [5], this compound displayed a Kd of 6460 nM. Moreover, the affinity in data set [6], expressed as Kd, was 1060 nM. This compound also gave a Kd in data set [7] of 5890 nM.
Turning to `Cc1nc2c(-c3ccn[nH]3)nc(C3=CCOCC3)cn2c1Cc1cccc(C(F)(F)F)c1C` [Compound 1], the melting point was 240 °C. For the same compound, the IC50 in data set [1] turned out to be 14 nM. The IC50 in data set [2] came out at 7 nM. The compound also registered a Kd in data set [3] of 288 nM. For the same compound, the affinity in data set [4], expressed as Kd, was 1.6 nM. Further, the Kd in data set [5] was determined as 1060 nM. Also, binding in data set [6] was characterised by a dissociation constant (Kd) of 69 nM. Also, the dissociation constant Kd in data set [7] is 935 nM.
The compound `Cc1c(Cc2c(CN3C[C@@H](C)N[C@@H](C)C3)nc3ncc(N4CCOCC4)cn23)cccc1C(F)(F)F` [Compound 19] yielded a melting point of 263 °C. For the same compound, in data set [1], the half-inhibitory concentration (IC50) stood at 380 nM. Also, in data set [2], the IC50 worked out at 186 nM. The same compound displayed a Kd in data set [3] of 16600 nM. For the same compound, the Kd in data set [4] is 4.2 nM. The same compound gave a Kd in data set [5] of over 30200 nM. Moreover, the Kd in data set [6] came to 1230 nM. In data set [7], this compound returned a Kd of over 30200 nM.
Compound `CN1CCC(c2c(F)cccc2Cc2c(CO)nc3ncc(N4CCOCC4)cn23)CC1` [Compound 48] yielded a melting point of 222 °C. In addition, the IC50 in data set [1] is over 513 nM. The half-maximal inhibitory concentration (IC50) in data set [2] was over 513 nM. In data set [3], this compound yielded a Kd of 9550 nM. In addition, in data set [4], the Kd was found to be 49 nM. Binding in data set [5] was characterised by a dissociation constant (Kd) of 12900 nM. In data set [6], this compound had a Kd of 4790 nM. The compound also returned a Kd in data set [7] of over 30200 nM.
In turn, `Cc1c(Cc2c(CN3CCS(=O)(=O)CC3)nc3ncc(N4CCOCC4)cn23)cccc1C(F)(F)F` [Compound 22] showed a melting point of 225 °C. Also, the IC50 in data set [1] worked out at 214 nM. In addition, the IC50 in data set [2] is about 79 nM. This compound had a Kd in data set [3] of 1440 nM. The same compound came in with a Kd in data set [4] of 3.1 nM. Further, the Kd in data set [5] was over 30200 nM. The compound also registered a dissociation constant Kd in data set [6] of 631 nM. The Kd in data set [7] is over 30200 nM.
